In PMC6928678, “Simplified Head-to-Tail Cyclic Polypeptides as Biomaterial-Associated Antimicrobials with Endotoxin Neutralizing and Anti-Inflammatory Capabilities” (International Journal of Molecular Sciences, 2019):
Where a SMILES comes first, the peptide text is derived from it. [ ]: non-standard residue; d: D form. Orn = NCCC[C@H](N)C(=O)O

Experiments:
RAW264.7 cells = assay: MTT cytotoxicity assay; assay type: cell-based, mouse; details: 0.5–128 μM, 24 h
Procedure: Figure 2 (A) Hemolytic activity of the engineered peptides against human red blood cells (hRBCs). The hRBCs were incubated with equal amounts of the respective peptides dissolved in PBS for 1 h at 37 °C. (B) Cytotoxicity of the engineered peptides against RAW264.7. The cells were incubated with various concentrations (0.5–128 μM) of peptides for 24 h, and the cell viability was determined by the MTT assay. Data shown are three independent experiments.
The MTT (3-[4, 5 dimethylthiozol-2-yl]-2,5-diphenyltetrazolium bromide) assay was conducted according to a previously reported MTT colorimetric method, and is used as a cell proliferation and cell viability assay. Mouse macrophage RAW264.7 cell lines stored in liquid nitrogen were recovered and cultured in a fully humidified atmosphere with 95% air and 5% CO2 at 37 °C. The cells were then diluted, added to 96-well plates at a final concentration of 2 × 10^5 cells/well, and cultured in RPMI 1640 medium at 37 °C overnight. The next day, peptides were added to the cell cultures at final concentrations of 0.5–128 μM, and untreated cell cultures serving as controls were cultured for 20–24 h in the same conditions. […] 150 μL of DMSO was added to dissolve the formazan crystals, and the OD was measured using a microplate reader (Tecan GENios F129004, Salzburg, Austria) at 570 nm. […]

E. coli UB1005 = assay: Outer membrane permeability assay (NPN uptake); assay type: cell-based; details: E. coli UB1005, concentrations greater than 4 μM; relative to 10 μg/mL polymyxin B
Procedure: Figure 4 Outer membrane permeabilization assays of the engineered peptides. A 2 mL volume of E. coli UB1005 cells, diluted to 10^5 CFU/mL in 5 mM sodium HEPES buffer, was added to a quartz cuvette containing NPN to give a final concentration of 10 μM. Aliquots of peptides were added to the cuvette, and the fluorescence was recorded until there was no further increase in fluorescence. Data shown are three independent experiments.
The effect of antimicrobial peptides on the outer leaflet of the cell membrane was examined using the extracellular membrane-sensitive fluorescent dye NPN and the antibiotic-sensitive mutant E. coli UB 1005. […] The background fluorescence was measured (excitation λ = 350 nm, emission λ = 420 nm) with an F-4500 fluorescence spectrophotometer (Hitachi, Tokyo, Japan). […] The fluorescence was recorded in terms of the time needed until there was no further increase in fluorescence after mixing several concentrations (0.5–64 μM) of peptides. […] Values were converted to percent NPN uptake using the following equation:(3) %NPN uptake=Fobs−F0/F100−F0× 100% where Fobs is the observed fluorescence at a given peptide concentration, F0 is the initial fluorescence of NPN in E. coli UB1005 cells and F100 is the fluorescence of NPN in UB1005 cells upon the addition of 10 μg/mL polymyxin B, which had strong outer membrane permeability.

Structure (SMILES)	toxicity towards mammalian cells (RAW264.7) (RAW264.7 cells)	outer membrane permeability (% NPN uptake) (E. coli UB1005)
CC(C)C[C@@H]1NC(=O)[C@H](CCCN)NC(=O)[C@H](C(C)C)NC(=O)[C@@H]2CCCN2C(=O)[C@@H](Cc2ccccc2)NC(=O)[C@H](CC(C)C)NC(=O)[C@H](CCCN)NC(=O)[C@H](C(C)C)NC(=O)[C@@H]2CCCN2C(=O)[C@@H](Cc2ccccc2)NC1=O [GS, gramicidin S, reference compound] (cyclo(V[Orn]L[dF]PV[Orn]L[dF]P))	highly toxic	
CC[C@H](C)[C@@H]1NC(=O)[C@H](CCCNC(=N)N)NC(=O)[C@H]([C@@H](C)CC)NC(=O)[C@@H]2CCCN2C(=O)[C@H](CCCNC(=N)N)NC(=O)[C@H]([C@@H](C)CC)NC(=O)[C@H](CCCNC(=N)N)NC(=O)[C@H]([C@@H](C)CC)NC(=O)[C@H](CCCNC(=N)N)NC(=O)[C@H]([C@@H](C)CC)NC(=O)[C@@H]2CCCN2C(=O)[C@H](CCCNC(=N)N)NC(=O)[C@H]([C@@H](C)CC)NC(=O)[C@H](CCCNC(=N)N)NC1=O [OIR3] (cyclo(IRIRIRPIRIRIRP))		more than 70%
